Experiments:
LS174T cells = assay: Seahorse XF assay (OCR, ECAR); assay type: cell-based
Source text: We further characterized the effects of cytisine-linked isoflavonoid 10c on energy metabolism using a Seahorse XF assay (FIG. 4D-F) that measured oxygen consumption rate (OCR), which was an indicator of mitochondrial respiration, and measured extracellular acidification rate (ECAR), which was largely the result of glycolysis. […] Similar results were found in DLD-1 colon cancer cells and PC-3 prostate cancer cells (FIGS. 8 and 9). These OCR findings were consistent with the prior evaluation of these cytisine-linked isoflavonoids that targeted the hydratase activity in HSD17B4, inhibited VLCFA beta-oxidation, depressed acetyl CoA generation, decreased the ratio of ATP/AMP, and triggered AMPK activation (FIG. 5).
Seahorse assay: 3×10^4 cells were seeded in XF96 Cell Culture microplate (80 μL of 3.75×10^5 cells/m:). On the next day, cells were treated with DMSO or inhibitors and analyzed using the Seahorse analyzer in Redox Metabolism Shared Resource Facility (RM SRF) at the Markey Cancer Center.

[1] = test system: LS174T colon cancer cells; assay: Cancer cell proliferation (Vi-Cell viability and number); assay type: cell-based; conditions: 10 μM of compound
Description: (§1) Cell Culture. LS74T colon cancer cells were cultured in MEM/EBSS (Hyclone SH30024) and PC-3 prostate cancer cells were cultured in DMEM/F-12 HAM Mixture (Sigma D8437) containing 10% Fetal Bovine Serum (Atlanta Biological S11150). Cells (3.5×10^4 cells per well) were split into 12-well plates. After 24 h, 10 μM of each compound were added to each well. DMSO was used as a control. Each experiment was done in triplicate. Cell viability and number were analyzed using the Vi-Cell XR Cell Viability Analyzer (Beckman Coulter). To knock-down HSD17B4 levels, PC-3 and LS174 cell lines were infected with lenti-virus carrying pLKO.1-control shRNA and pLKO.1-HSD17B4b shRNA, respectively. Control shRNA and HSD17B4b shRNA cloned in pLKO.1 vectors with puromycin-resistance selection marker were purchased from Sigma. Lentiviral stocks were prepared as previously described (Yu, 2012).

[2] = test system: PC-3 prostate cancer cells; assay: as above; assay type: cell-based; conditions: 10 μM of compound
Description: as §1

[3] = biological target: T1, hydratase activity of HSD17B4 (Homo sapiens, UniProt P51659); assay: HSD17B4 hydratase assay (crotonoyl CoA substrate); assay type: biochemical
T1 construct: His-tag; made in house; host or cells: E. coli BL21 (pET28)
T1 sequence (P51659 1-736): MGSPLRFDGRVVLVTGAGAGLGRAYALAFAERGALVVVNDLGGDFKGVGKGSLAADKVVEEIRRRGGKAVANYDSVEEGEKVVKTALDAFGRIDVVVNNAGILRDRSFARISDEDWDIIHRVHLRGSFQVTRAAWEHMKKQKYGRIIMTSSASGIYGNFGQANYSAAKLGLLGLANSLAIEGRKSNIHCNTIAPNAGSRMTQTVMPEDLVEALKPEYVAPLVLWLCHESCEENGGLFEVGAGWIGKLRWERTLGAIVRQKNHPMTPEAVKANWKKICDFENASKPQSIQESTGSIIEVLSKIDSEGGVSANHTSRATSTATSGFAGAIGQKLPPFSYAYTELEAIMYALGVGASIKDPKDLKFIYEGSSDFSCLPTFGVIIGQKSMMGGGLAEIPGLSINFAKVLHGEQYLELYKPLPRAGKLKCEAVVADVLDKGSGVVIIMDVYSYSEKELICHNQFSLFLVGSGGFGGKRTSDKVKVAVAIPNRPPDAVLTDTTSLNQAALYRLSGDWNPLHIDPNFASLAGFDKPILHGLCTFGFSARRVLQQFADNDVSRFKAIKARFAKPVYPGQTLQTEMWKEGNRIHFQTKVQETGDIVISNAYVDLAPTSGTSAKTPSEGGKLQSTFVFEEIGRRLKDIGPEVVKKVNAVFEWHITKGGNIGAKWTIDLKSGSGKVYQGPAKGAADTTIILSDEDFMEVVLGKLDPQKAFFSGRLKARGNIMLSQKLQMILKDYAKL
Source text: We acquired further evidence along these lines through studies using the N-terminal α,β-dehydrogenase and C-terminal hydratase fragments of HSD17B4 as well as the full-length protein. We evaluated the α,β-dehydrogenase activity using DL-3-hydroxylbutyryl-CoA as a substrate and the conversion of NAD^+ to NADH as a readout. We concomitantly measured the hydratase activity using crotonoyl-CoA as a substrate and the diminished ultraviolet absorption of the α,β-unsaturated thioester chromophore as readout. The full-length protein, as expected, had both enzyme activities (FIGS. 7A and 7B). The C-terminal-truncated fragments N318 and N634 but not the N-terminal-truncation fragment C919 had α,β-dehydrogenase activity (FIG. 7A). The C-terminal fragment N634 and the N-terminal fragment C919, but not the C-terminal fragment N318, had hydratase activity (FIG. 7B), as summarized in FIG. 3A.
The enzymatic activities of HSD17B4 were analyzed using the method reported by Novikov et al. (J. Biol. Chem., 1994, 269, 27125). […] The reaction was quantified by measuring the fluorescent product NADH (excitation: 340 nm; emission 460 nm). […] The reaction was quantified by measuring the remaining substrate using absorbance at 280 nm.

p70 = p70 phosphorylation, mTor pathway (Western blotting); assay type: cell-based; conditions: PC-3 and LS174T cells
Description: (§2) Biochemistry. Western blotting: Cells were lysed in the appropriate volume of lysis buffer (50 mM HEPES, 100 mM NaCl, 2 mM EDTA, 1% glycerol, 50 mM NaF, 1 mM Na3VO4, 1% Triton X-100, with protease inhibitors). The following antibodies were used: HSD17B4 (GeneTex, GTX103864), AMPK (Cell Signaling, 2532), pAMPK (Cell Signaling, 2535), ACC (Cell Signaling, 3676), pACC (Cell Signaling, 11818), p^70 (Cell Signaling, 2708), p-p^70 (Cell Signaling, 9914), S6 (Cell Signaling, 2217), pS6 (Cell Signaling, 4858), MCCA (GeneTex, GTX110062), tubulin (Hybridoma Bank, E7), Actin (Sigma, A1978), His-tag (BD Pharmingen, 552564).

AMPK = AMPK activation (levels of phosphorylated AMPK, Western blotting); assay type: cell-based
Description: as §2

O=c1c(-c2ccc(Cl)cc2)coc2cc(OCCN3C[C@@H]4C[C@@H](C3)c3cccc(=O)n3C4)ccc12 [Compound 10c, (1 S,5S)-3-(2-((3-(4-chlorophenyl)-4-oxo-4H-chromen-7-yl)oxy)ethyl)-3,4,5,6-tetrahydro-1H-1,5-methanopyrido[1,2-a][1,5]diazocin-8(2H)-one]
respiration rates (LS174T cells): significantly reduced the respiration rates
levels of ATP production (LS174T cells; OCR and ECAR assays): reduced the levels of ATP production
proliferation of LS174T cells [1]: significantly inhibited the proliferation
proliferation of PC-3 cells [2]: significantly inhibited the proliferation
effect on hydratase activity [3]: significantly inhibited
phosphorylation of p70 (p70): inhibited the phosphorylation
AMPK activation (AMPK; LS174T colon cancer cells): activated AMPK
AMPK activation (AMPK; PC-3 prostate cancer cells): activated AMPK

— patent US10188743B2, “Cytisine-linked isoflavonoid antineoplastic agents for the treatment of cancer” (UNIVERSITY OF KENTUCKY RESEARCH FOUNDATION, priority 2016, dated 2019)
